In the NIST ThermoML archive (doi:10.1021/je0502804):
± gives the expanded uncertainty stated by the source.

Conditions: Crystal; visual observation

Row | Structure (SMILES) | Normal melting temperature
1 | Clc1cc(Cl)c(Cl)nc1Cl [2,3,5,6-tetrachloropyridine] | 90.00 ± 0.5 °C
2 | Clc1nc(Cl)c(Cl)c(Cl)c1Cl [pentachloropyridine] | 124.00 ± 0.5 °C
